Source: patent publication US20130261130A1, “NEUROTRYPSIN INHIBITORS” (priority 2010, published 2013)
Where two headings read alike, the source gives them in different places.

Legend:
Type in all cases: biochemical
human neurotrypsin = molecular target: T1, human neurotrypsin (Homo sapiens, UniProt P56730); experiment: Determination of IC50 for human neurotrypsin
T1 sequence (P56730 21-875): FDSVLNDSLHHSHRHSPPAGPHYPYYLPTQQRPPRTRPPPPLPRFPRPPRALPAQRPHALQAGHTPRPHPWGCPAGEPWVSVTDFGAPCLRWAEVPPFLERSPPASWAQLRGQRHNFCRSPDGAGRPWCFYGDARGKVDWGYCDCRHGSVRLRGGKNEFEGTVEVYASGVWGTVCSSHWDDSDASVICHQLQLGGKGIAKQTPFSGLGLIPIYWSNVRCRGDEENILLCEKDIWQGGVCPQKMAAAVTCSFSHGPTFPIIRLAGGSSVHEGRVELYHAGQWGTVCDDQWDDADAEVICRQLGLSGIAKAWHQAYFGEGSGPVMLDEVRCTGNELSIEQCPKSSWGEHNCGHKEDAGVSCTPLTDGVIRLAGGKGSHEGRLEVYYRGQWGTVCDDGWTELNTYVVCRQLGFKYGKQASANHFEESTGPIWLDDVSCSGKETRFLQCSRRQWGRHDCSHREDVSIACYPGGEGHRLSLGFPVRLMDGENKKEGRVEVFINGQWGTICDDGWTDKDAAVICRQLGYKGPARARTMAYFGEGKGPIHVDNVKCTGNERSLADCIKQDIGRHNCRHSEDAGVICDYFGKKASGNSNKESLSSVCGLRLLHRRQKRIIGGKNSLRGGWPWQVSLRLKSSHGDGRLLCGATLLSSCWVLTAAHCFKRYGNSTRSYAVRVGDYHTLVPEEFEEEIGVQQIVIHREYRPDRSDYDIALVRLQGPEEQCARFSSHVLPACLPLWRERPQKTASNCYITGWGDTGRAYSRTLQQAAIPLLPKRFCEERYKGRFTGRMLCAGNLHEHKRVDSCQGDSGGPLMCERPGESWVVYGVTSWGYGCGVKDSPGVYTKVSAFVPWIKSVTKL
Experimental: Assessment of the potency of compounds of examples 1-311 in inhibiting the enzymatic activity of human neurotrypsin was performed according to the method described in patent application WO 2006/1103261

Trypsin (hog trypsin) = molecular target: T2, Trypsin (hog trypsin) (Sus scrofa, UniProt P00761); experiment: Determination of the IC50 for various proteases: trypsin; conditions: Mean ± SD
T2 construct: Trypsin is hog trypsin (Sigma Aldrich); purchased Sigma Aldrich
T2 sequence (P00761 9-231): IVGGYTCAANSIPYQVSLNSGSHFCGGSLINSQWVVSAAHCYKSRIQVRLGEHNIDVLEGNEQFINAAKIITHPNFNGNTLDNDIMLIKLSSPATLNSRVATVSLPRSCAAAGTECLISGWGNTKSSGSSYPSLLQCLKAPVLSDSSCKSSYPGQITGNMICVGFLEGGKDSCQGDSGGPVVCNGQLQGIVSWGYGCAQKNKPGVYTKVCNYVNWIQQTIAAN
Experimental: (§1) A 6 mM solution of the test compound in DMSO was prepared. In a V-bottom micro plate the 6 mM compound solution was diluted 6 times in DMSO to obtain a concentration row with the following concentrations: 6 mM, 1.8 mM, 540 μM, 162 μM, 48.8 μM, 14.4 μM, and 4 μM. From this DMSO master plate 1:20 dilutions in 10 mM MOPS pH 8.3 were prepared to obtain solutions of 300, 90, 27, 8.1, 2.44, 0.72 and 0.22 μM in MOPS buffer and 5% DMSO.
(§2) 100 μl of this solution were pipetted into a flat bottom 96 well microplate and placed into a Tecan infinite 200 plate reader. Before measurement, 50 μl of protease solution and, subsequently 50 μl substrate solution were added by the machine. The liberation of free para nitroanilide was detected at 405 nm. The protease solution was freshly prepared by diluting to the desired concentration from a stock solution in 60 mM MOPS; 600 mM NaCl; 20 mM CaCl2; 10% DMSO; 0.4% PEG 6000 pH 8.3. The substrate solution was prepared by dissolving the solid substrate in an adequate amount of water to get the desired concentrations. The used protease and substrate solutions are given below:
(§3) All enzymes except trypsin were from human origin (American diagnostic). Trypsin is hog trypsin (Sigma Aldrich). Substrates were purchased from Chromogenix. […]

Thrombin = molecular target: T3, Thrombin (Homo sapiens, UniProt P00734); experiment: Determination of the IC50 for various proteases: thrombin; conditions: Mean ± SD
T3 construct: Thrombin; purchased American diagnostic
Experimental: as §1, §2, §3

Plasmin = molecular target: T4, Plasmin (Homo sapiens, UniProt P00747); experiment: Determination of the IC50 for various proteases: plasmin; conditions: Mean ± SD
T4 construct: Plasmin; purchased American diagnostic
T4 sequence (P00747 581-810 limits assumed): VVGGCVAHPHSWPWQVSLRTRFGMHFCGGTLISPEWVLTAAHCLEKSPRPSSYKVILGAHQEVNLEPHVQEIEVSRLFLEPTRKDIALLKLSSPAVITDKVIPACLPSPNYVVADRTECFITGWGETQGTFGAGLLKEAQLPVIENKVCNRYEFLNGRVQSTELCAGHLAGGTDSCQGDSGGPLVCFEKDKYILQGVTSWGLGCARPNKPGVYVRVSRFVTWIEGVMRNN
T4 sequence (P00747 97-580 partner limits assumed): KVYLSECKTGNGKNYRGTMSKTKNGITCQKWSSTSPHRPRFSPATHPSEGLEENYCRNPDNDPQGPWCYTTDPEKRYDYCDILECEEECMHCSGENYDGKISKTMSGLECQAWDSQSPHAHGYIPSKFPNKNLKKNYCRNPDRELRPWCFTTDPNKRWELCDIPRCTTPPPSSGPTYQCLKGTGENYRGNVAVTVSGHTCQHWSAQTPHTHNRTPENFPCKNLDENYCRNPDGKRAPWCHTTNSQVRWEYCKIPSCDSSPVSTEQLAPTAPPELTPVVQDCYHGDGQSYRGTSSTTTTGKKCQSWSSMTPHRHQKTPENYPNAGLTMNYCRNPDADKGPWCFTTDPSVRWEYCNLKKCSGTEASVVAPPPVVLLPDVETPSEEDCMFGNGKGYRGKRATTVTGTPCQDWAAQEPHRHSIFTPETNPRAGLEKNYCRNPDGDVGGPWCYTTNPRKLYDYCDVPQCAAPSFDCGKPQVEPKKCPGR
Experimental: as §1, §2, §3

Kallikrein = Kallikrein (Homo sapiens, UniProt P03952); experiment: Determination of the IC50 for various proteases: kallikrein; conditions: Mean ± SD
Chain of Kallikrein (P03952 whole entry): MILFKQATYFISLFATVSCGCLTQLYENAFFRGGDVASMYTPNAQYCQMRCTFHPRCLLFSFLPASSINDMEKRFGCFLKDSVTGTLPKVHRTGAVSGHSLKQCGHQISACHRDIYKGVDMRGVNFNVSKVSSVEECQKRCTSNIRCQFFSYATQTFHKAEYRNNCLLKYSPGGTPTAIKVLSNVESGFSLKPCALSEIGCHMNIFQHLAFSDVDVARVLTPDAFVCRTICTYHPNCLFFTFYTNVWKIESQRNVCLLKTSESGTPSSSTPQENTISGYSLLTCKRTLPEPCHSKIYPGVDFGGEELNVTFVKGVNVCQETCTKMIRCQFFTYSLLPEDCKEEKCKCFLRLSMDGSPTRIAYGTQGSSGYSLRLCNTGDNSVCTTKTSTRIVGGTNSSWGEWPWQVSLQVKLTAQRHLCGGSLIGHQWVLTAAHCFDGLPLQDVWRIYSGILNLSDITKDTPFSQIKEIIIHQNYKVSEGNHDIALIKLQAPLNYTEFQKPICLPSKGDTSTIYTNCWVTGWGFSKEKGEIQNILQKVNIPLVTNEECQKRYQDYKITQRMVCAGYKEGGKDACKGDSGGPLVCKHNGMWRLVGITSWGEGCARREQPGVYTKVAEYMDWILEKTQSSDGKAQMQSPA
Experimental: as §1, §2, §3

tPA = molecular target: T5, tPA (Homo sapiens, UniProt P00750); experiment: Determination of the IC50 for various proteases: tPA; conditions: Mean ± SD
T5 construct: purchased American diagnostic
T5 sequence (P00750 36-562): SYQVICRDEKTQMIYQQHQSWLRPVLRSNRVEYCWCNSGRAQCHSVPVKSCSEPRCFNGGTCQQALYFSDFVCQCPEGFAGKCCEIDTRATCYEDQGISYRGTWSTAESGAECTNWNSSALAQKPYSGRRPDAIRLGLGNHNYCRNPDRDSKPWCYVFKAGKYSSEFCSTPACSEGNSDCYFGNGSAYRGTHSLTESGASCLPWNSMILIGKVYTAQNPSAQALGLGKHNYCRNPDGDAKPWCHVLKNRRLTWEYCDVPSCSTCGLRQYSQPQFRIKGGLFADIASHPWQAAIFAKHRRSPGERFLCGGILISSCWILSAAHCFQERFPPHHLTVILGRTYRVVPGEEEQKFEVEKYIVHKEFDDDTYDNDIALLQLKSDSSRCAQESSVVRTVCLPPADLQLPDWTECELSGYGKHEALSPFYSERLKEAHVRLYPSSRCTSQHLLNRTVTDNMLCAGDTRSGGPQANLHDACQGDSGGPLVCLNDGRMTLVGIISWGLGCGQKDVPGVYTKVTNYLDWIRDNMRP
Experimental: as §1, §2, §3

uPA = molecular target: T6, uPA (Homo sapiens, UniProt P00749); experiment: Determination of the IC50 for various proteases: uPA; conditions: Mean ± SD
T6 construct: purchased American diagnostic
Experimental: as §1, §2, §3

Factor Xa = molecular target: T7, Factor Xa (Homo sapiens, UniProt P00742); experiment: Determination of the IC50 for various proteases: Factor Xa; conditions: Mean ± SD
T7 construct: Factor Xa; purchased American diagnostic
T7 sequence (P00742 235-488 limits assumed): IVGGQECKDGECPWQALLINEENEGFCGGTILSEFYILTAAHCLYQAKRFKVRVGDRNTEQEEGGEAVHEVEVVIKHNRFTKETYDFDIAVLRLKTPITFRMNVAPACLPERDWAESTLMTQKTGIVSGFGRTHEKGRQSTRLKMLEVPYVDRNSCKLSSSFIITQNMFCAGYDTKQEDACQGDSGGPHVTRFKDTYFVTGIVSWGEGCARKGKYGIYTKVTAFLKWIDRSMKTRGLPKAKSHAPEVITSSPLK
T7 sequence (P00742 41-179 partner limits assumed): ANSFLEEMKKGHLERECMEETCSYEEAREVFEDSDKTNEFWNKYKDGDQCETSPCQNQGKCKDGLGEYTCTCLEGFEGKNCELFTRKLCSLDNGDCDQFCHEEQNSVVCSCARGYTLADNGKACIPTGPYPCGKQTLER
Experimental: as §1, §2, §3

O=C(Nc1ccc(Cl)cc1)c1ccc(NC(=O)c2ccc(-c3nc4cc(Cl)c(Cl)cc4[nH]3)cc2)c(C(=O)O)c1 [Example 119]
IC50 (human neurotrypsin; Mean ± SD, read-out: IC50 Neurotrypsin): 0.51 ± 0.16 µM | IC50 (human neurotrypsin; human neurotrypsin, method of WO 2006/1103261, read-out: Neurotrypsin IC50): 0.4 µM | IC50 (Trypsin (hog trypsin)): > 150 µM | IC50 (Thrombin): 37.7 ± 25.2 µM | IC50 (Plasmin): 2.4 ± 1.6 µM | IC50 (Kallikrein): 27.1 ± 9.2 µM | IC50 (tPA): 47.1 ± 22.4 µM | IC50 (uPA): > 40 µM | IC50 (Factor Xa): 39.8 ± 33.3 µM
